Assays:
Type in all cases: functional, cell-based
MCF7 = experiment: Antiproliferative activity against human MCF7 cells after 48 hrs by MTT assay; conditions: MCF7, 48 h
HCT-116 = experiment: Antiproliferative activity against human HCT-116 cells after 48 hrs by MTT assay; conditions: HCT-116, 48 h
HeLa = experiment: Antiproliferative activity against human HeLa cells after 48 hrs by MTT assay
HepG2 = experiment: Antiproliferative activity against human HepG2 cells after 48 hrs by MTT assay; conditions: HepG2, 48 h

| SMILES | IC50 (MCF7) [µM] | IC50 (HCT-116) [µM] | IC50 (HeLa) [µM] | IC50 (HepG2) [µM] |
| --- | --- | --- | --- | --- |
| CC(=O)[C@]1(O)CC[C@@]2(O)[C@]1(C)[C@H](OC(=O)c1ccc(O)cc1)C[C@@H]1[C@@]3(C)CC[C@H](O)CC3=CC[C@]12O | 83.1 | 73 | > 100 | 79.1 |
| CC(=O)[C@]1(O)CC[C@@]2(O)[C@]1(C)[C@H](OC(=O)/C=C(\C)C(C)C)C[C@@H]1[C@@]3(C)CC[C@H](O[C@@H]4OC[C@H](O)[C@H](O)[C@H]4O)CC3=CC[C@]12O | > 100 | > 100 | > 100 | 87.5 |
| CC(=O)O[C@@H]1[C@@H](OC(C)=O)[C@H](O[C@H]2CC[C@@]3(C)C(=CC[C@]4(O)[C@@H]3C[C@@H](OC(=O)c3ccc(O)cc3)[C@@]3(C)[C@]4(O)CC[C@@]3(O)C(C)=O)C2)OC[C@H]1OC(C)=O | 55.4 | 35.3 | 60.8 | 28.5 |
| CC(=O)O[C@@H]1[C@@H](OC(C)=O)[C@H](O[C@H]2CC[C@@]3(C)C(=CC[C@]4(O)[C@@H]3C[C@@H](OC(=O)/C=C(\C)C(C)C)[C@@]3(C)[C@]4(O)CC[C@@]3(O)C(C)=O)C2)OC[C@@H]1OC(C)=O | 43.1 | 23.8 | 33.6 | 23.6 |
| CC(=O)O[C@@H]1[C@@H](O[C@H]2CC[C@@]3(C)C(=CC[C@]4(O)[C@@H]3C[C@@H](OC(=O)/C=C(\C)C(C)C)[C@@]3(C)[C@]4(O)CC[C@@]3(O)C(C)=O)C2)OC[C@@H](OC(C)=O)[C@H]1OC(C)=O | 52.6 | 29.6 | 60.5 | 52.8 |
| CC(=O)OC[C@H]1O[C@@H](O[C@H]2CC[C@@]3(C)C(=CC[C@]4(O)[C@@H]3C[C@@H](OC(=O)c3ccc(O)cc3)[C@@]3(C)[C@]4(O)CC[C@@]3(O)C(C)=O)C2)[C@H](OC(C)=O)[C@@H](OC(C)=O)[C@@H]1OC(C)=O | 90.9 | 66.2 | 95.8 | 74.5 |
| CC(=O)[C@]1(O)CC[C@@]2(O)[C@]1(C)[C@H](OC(=O)c1ccc(O)cc1)C[C@@H]1[C@@]3(C)CC[C@H](O[C@@H]4O[C@H](CO)[C@H](O)[C@H](O)[C@H]4O)CC3=CC[C@]12O | 20.9 | 27.3 | 25.1 | 23.7 |
| CC(=O)OC[C@H]1O[C@H](O[C@H]2CC[C@@]3(C)C(=CC[C@]4(O)[C@@H]3C[C@@H](OC(=O)/C=C(\C)C(C)C)[C@@]3(C)[C@]4(O)CC[C@@]3(O)C(C)=O)C2)[C@@H](OC(C)=O)[C@@H](OC(C)=O)[C@@H]1OC(C)=O | 42.7 | 15.6 | 70.2 | 23.7 |
| CC(=O)OC[C@H]1O[C@@H](O[C@H]2CC[C@@]3(C)C(=CC[C@]4(O)[C@@H]3C[C@@H](OC(=O)/C=C/c3ccccc3)[C@@]3(C)[C@]4(O)CC[C@@]3(O)[C@H](C)OC(=O)c3cccnc3)C2)[C@H](OC(C)=O)[C@@H](OC(C)=O)[C@@H]1OC(C)=O | 82.8 | 36.1 | 79.6 | 26.4 |
| CC(=O)OC[C@H]1O[C@@H](O[C@H]2CC[C@@]3(C)C(=CC[C@]4(O)[C@@H]3C[C@@H](OC(=O)/C=C(\C)C(C)C)[C@@]3(C)[C@]4(O)CC[C@@]3(O)C(C)=O)C2)[C@H](OC(C)=O)[C@@H](OC(C)=O)[C@@H]1OC(C)=O | 93.4 | 26.6 | > 100 | 65.8 |
| CC(=O)O[C@H]1[C@H](OC(C)=O)[C@@H](O[C@H]2CC[C@@]3(C)C(=CC[C@]4(O)[C@@H]3C[C@@H](OC(=O)/C=C(\C)C(C)C)[C@@]3(C)[C@]4(O)CC[C@@]3(O)C(C)=O)C2)O[C@@H](C)[C@H]1OC(C)=O | 31.5 | 18.4 | 31.7 | 18.9 |
| CC(=O)[C@]1(O)CC[C@@]2(O)[C@]1(C)[C@H](OC(=O)/C=C(\C)C(C)C)C[C@@H]1[C@@]3(C)CC[C@H](O[C@@H]4OC[C@@H](O)[C@H](O)[C@H]4O)CC3=CC[C@]12O | 95.9 | 90.9 | > 100 | 90.9 |
| CC(=O)[C@]1(O)CC[C@@]2(O)[C@]1(C)[C@H](OC(=O)/C=C(\C)C(C)C)C[C@@H]1[C@@]3(C)CC[C@H](O[C@H]4C[C@H](O)[C@H](O)CO4)CC3=CC[C@]12O | 93 | 36.8 | 86.5 | 39.8 |
| CC(=O)OC[C@H]1O[C@@H](O[C@H]2CC[C@@]3(C)C(=CC[C@]4(O)[C@@H]3C[C@@H](OC(=O)/C=C/c3ccccc3)[C@@]3(C)[C@]4(O)CC[C@@]3(O)[C@H](C)OC(=O)c3cccnc3)C2)[C@H](OC(C)=O)[C@@H](OC(C)=O)[C@H]1OC(C)=O | 24.5 | 7.11 | 20.7 | 8.49 |
| CC(=O)[C@]1(O)CC[C@@]2(O)[C@]1(C)[C@H](OC(=O)c1ccc(O)cc1)C[C@@H]1[C@@]3(C)CC[C@H](O[C@@H]4O[C@H](CO)[C@@H](O)[C@H](O)[C@H]4O)CC3=CC[C@]12O | 92.6 | 75.1 | 95.5 | 65.3 |
| CC(=O)[C@]1(O)CC[C@@]2(O)[C@]1(C)[C@H](OC(=O)c1ccc(O)cc1)C[C@@H]1[C@@]3(C)CC[C@H](O[C@@H]4O[C@@H](C)[C@H](O)[C@@H](O)[C@H]4O)CC3=CC[C@]12O | 88.5 | 60.3 | 91.3 | 54.6 |
| CC(=O)O[C@@H]1[C@@H](OC(C)=O)[C@H](C)O[C@@H](O[C@H]2CC[C@@]3(C)C(=CC[C@]4(O)[C@@H]3C[C@@H](OC(=O)c3ccc(O)cc3)[C@@]3(C)[C@]4(O)CC[C@@]3(O)C(C)=O)C2)[C@@H]1OC(C)=O | 53.6 | 48.7 | 57.1 | 41.4 |
| CC(=O)OC[C@H]1O[C@@H](O[C@H]2CC[C@@]3(C)C(=CC[C@]4(O)[C@@H]3C[C@@H](OC(=O)c3ccc(O)cc3)[C@@]3(C)[C@]4(O)CC[C@@]3(O)C(C)=O)C2)[C@H](OC(C)=O)[C@@H](OC(C)=O)[C@H]1OC(C)=O | 20.8 | 9.32 | 22.8 | 9.9 |
| CC(=O)O[C@H]1C[C@H](O[C@H]2CC[C@@]3(C)C(=CC[C@]4(O)[C@@H]3C[C@@H](OC(=O)/C=C(\C)C(C)C)[C@@]3(C)[C@]4(O)CC[C@@]3(O)C(C)=O)C2)OC[C@H]1OC(C)=O | 26.2 | 31.6 | 43.8 | 14.1 |
| CC(=O)N[C@H]1[C@H](O[C@H]2CC[C@@]3(C)C(=CC[C@]4(O)[C@@H]3C[C@@H](OC(=O)/C=C(\C)C(C)C)[C@@]3(C)[C@]4(O)CC[C@@]3(O)C(C)=O)C2)O[C@H](COC(C)=O)[C@@H](OC(C)=O)[C@@H]1OC(C)=O | 21.1 | 17.3 | 23.8 | 5.5 |
| CC(=O)[C@]1(O)CC[C@@]2(O)[C@]1(C)[C@H](OC(=O)/C=C(\C)C(C)C)C[C@@H]1[C@@]3(C)CC[C@H](O[C@H]4OC[C@H](O)[C@H](O)[C@@H]4O)CC3=CC[C@]12O | > 100 | 72.1 | > 100 | 51.8 |
| CC(=O)O[C@@H]1[C@@H](OC(C)=O)[C@H](O[C@H]2CC[C@@]3(C)C(=CC[C@]4(O)[C@@H]3C[C@@H](OC(=O)/C=C(\C)C(C)C)[C@@]3(C)[C@]4(O)CC[C@@]3(O)C(C)=O)C2)OC[C@H]1OC(C)=O | 50.4 | 34.9 | 85.3 | 42.6 |
| CC(=O)O[C@@H]1[C@@H](O[C@H]2CC[C@@]3(C)C(=CC[C@]4(O)[C@@H]3C[C@@H](OC(=O)/C=C(\C)C(C)C)[C@@]3(C)[C@]4(O)CC[C@@]3(O)C(C)=O)C2)OC[C@H](OC(C)=O)[C@H]1OC(C)=O | 47 | 12 | 28.1 | 15.8 |
| CC(=O)O[C@@H]1[C@@H](OC(C)=O)[C@H](C)O[C@@H](O[C@H]2CC[C@@]3(C)C(=CC[C@]4(O)[C@@H]3C[C@@H](OC(=O)/C=C(\C)C(C)C)[C@@]3(C)[C@]4(O)CC[C@@]3(O)C(C)=O)C2)[C@@H]1OC(C)=O | 95 | 26.1 | > 100 | 72.8 |
| CC(=O)OC[C@H]1O[C@@H](O[C@H]2CC[C@@]3(C)C(=CC[C@]4(O)[C@@H]3C[C@@H](OC(=O)/C=C(\C)C(C)C)[C@@]3(C)[C@]4(O)CC[C@@]3(O)C(C)=O)C2)[C@H](OC(C)=O)[C@@H](OC(C)=O)[C@H]1OC(C)=O | 16.9 | 7.41 | 24.8 | 9.7 |
| CC(=O)O[C@@H]1[C@@H](O[C@H]2CC[C@@]3(C)C(=CC[C@]4(O)[C@@H]3C[C@@H](OC(=O)/C=C(\C)C(C)C)[C@@]3(C)[C@]4(O)CC[C@@]3(O)C(C)=O)C2)OC[C@H](OC(C)=O)[C@@H]1OC(C)=O | 24.5 | 15.9 | 18.1 | 6.85 |
| CC(=O)O[C@@H]1[C@@H](OC(C)=O)[C@H](O[C@H]2CC[C@@]3(C)C(=CC[C@]4(O)[C@@H]3C[C@@H](OC(=O)/C=C/c3ccccc3)[C@@]3(C)[C@]4(O)CC[C@@]3(O)[C@H](C)OC(=O)c3cccnc3)C2)OC[C@H]1OC(C)=O | > 100 | 63.6 | > 100 | 70.1 |
| CC(=O)O[C@H]1[C@H](O[C@H]2CC[C@@]3(C)C(=CC[C@]4(O)[C@@H]3C[C@@H](OC(=O)/C=C(\C)C(C)C)[C@@]3(C)[C@]4(O)CC[C@@]3(O)C(C)=O)C2)OC[C@@H](OC(C)=O)[C@H]1OC(C)=O | 61.1 | 52.1 | 58.7 | 30.8 |
| CC(=O)O[C@H]1[C@@H](OC(C)=O)[C@@H](C)O[C@@H](O[C@H]2CC[C@@]3(C)C(=CC[C@]4(O)[C@@H]3C[C@@H](OC(=O)/C=C(\C)C(C)C)[C@@]3(C)[C@]4(O)CC[C@@]3(O)C(C)=O)C2)[C@@H]1OC(C)=O | 38.3 | 20.3 | 44.3 | 23.8 |
| COc1cc2c(c(OC)c1OC)-c1ccc(OC)c(=O)cc1[C@@H](NC(C)=O)CC2 [COLCHICINE] | 0.028 | 0.046 |  | 0.064 |

Source: ChEMBL document CHEMBL5143557, “Synthesis and biological evaluation of 3β-O-neoglycosides of caudatin and its analogues as potential anticancer agents” (Bioorg Med Chem, 2022)
